# Columns and labels:
# [1] = target: Mcl-1 protein (Homo sapiens, UniProt Q07820); assay: Fluorescence polarization-based binding; details: for decrease in Mcl-1 inhibitory activity: compared with coumarin 33
# [2] = system: A549 cells; assay: Cytotoxicity assay by SRB method; details: taxol in combination with Cpd 4 vs taxol alone
# Sequence of Mcl-1 protein (Q07820 whole entry): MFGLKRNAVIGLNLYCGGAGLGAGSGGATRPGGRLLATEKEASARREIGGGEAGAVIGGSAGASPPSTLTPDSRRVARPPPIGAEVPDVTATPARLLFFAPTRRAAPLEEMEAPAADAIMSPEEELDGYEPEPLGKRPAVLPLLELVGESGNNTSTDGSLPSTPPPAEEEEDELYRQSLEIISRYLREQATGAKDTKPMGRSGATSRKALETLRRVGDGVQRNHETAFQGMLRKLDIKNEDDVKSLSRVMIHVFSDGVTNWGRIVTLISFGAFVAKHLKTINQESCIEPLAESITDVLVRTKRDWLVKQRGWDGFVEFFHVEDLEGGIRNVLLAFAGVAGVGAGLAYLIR
compound,measurement,setting,value
"Cc1cc(=O)oc2c(CN3CCC(O)CC3)c(O)c(O)cc12 [Cpd 15, 6,7-dihydroxy-8-((4-hydroxypiperidin-1-yl)methyl)-4-methyl-2H-chromen-2-one]",decrease of Mcl-1 inhibitory activity,[1]; compared with parent 1,more than 7 fold
"O=c1ccc2cc(O)ccc2o1 [Cpd 34, 6-hydroxycoumarin]",decrease in Mcl-1 inhibitory activity,[1],6 fold
"O=c1ccc2ccc(O)cc2o1 [Cpd 35, 7-hydroxycoumarin]",decrease in Mcl-1 inhibitory activity,[1],little effect
FAM-Bid: Bid BH3 peptide of 21-residue (residues 79–99) with a 6-carboxy-fluorescein succinimidyl ester fluorescence tag [reference compound],Kd,"[1]; read-out: Kd for binding to Mcl-1 protein, saturation experiments",13 nM
CC(=O)O[C@H]1C(=O)[C@@]2(C)[C@H]([C@H](OC(=O)c3ccccc3)[C@]3(O)C[C@H](OC(=O)[C@H](O)[C@@H](NC(=O)c4ccccc4)c4ccccc4)C(C)=C1C3(C)C)[C@]1(OC(C)=O)CO[C@@H]1C[C@@H]2O [taxol],decrease of IC50 value for the combination compared with taxol alone,[2],more than 10 fold

# — article PMC7855844 (Bioorganic & medicinal chemistry, 2020)
